Laboratory results from patent EP4608400B1, “COMPOUND FOR TREATMENT OF PAIN” (Initiator Pharma A/S, priority 2022, dated 2024).

Tested on: intradermal capsaicin model
Experiment: Phase I crossover study, intradermal capsaicin model: pharmacodynamics
Assay type: in vivo, human
Details: for Pain Score of Brush-evoked Allodynia Using an NRS, Adjusted Mean (MMRM) / Subjective Rating of Pain, Adjusted Mean (MMRM): overall, all timepoints, N=24; for Pain Score of Brush-evoked Allodynia Using an NRS, Adjusted Mean (MMRM): placebo 2.0; for Subjective Rating of Pain, Adjusted Mean (MMRM): placebo 17.1
From the text: Participants. The volunteers were males aged 18 to 55 years with a body mass index (BMI) of 18 to 30 kg/m2. They were healthy as determined by a responsible physician, based on a medical evaluation including medical history, physical examination, concomitant medication, vital signs, 12-lead ECG, and clinical laboratory evaluations. The participants must have been in good general health with a skin type compatible with the measures and without significant skin allergies, pigmentary disorders or any active dermatological conditions. […] The participants provided written informed consent, which included compliance with the requirements and restrictions listed in the consent form, including the use of a condom during the trial and for 3 months after their final dose of trial medication, if their partner was a woman of childbearing potential.
Clinical and laboratory data. Prior to and 15, 30, 60, 90 and 120 minutes after administration of capsaicin, measurements of pain, hyperalgesia, allodynia and AF were performed. At 2 hours post-capsaicin injection, subjects completed a quantitative sensory testing (QST) battery at two sites on the volar surface of each forearm. One site was the most recent capsaicin injection site, and the other was at an equivalent point on the opposite forearm. […] There was a minimum washout period of 5 days between treatment periods.
Reconstitution was performed by a Pharmacist at the clinical site prior to dosing.
In order to maintain the blind, a double dummy approach was used.
Subjects were randomised to receive a single administration of a treatment combination during each treatment period. All subjects received each treatment combination once only.
Evaluation methods: Pharmacodynamics was assessed through pain measurements (response to ID injection of capsaicin, measurement of pain using a visual analogue scale, area and pain score of hyperalgesia, area and pain score of allodynia, and AF) and the ID capsaicin model. Subjects also completed a QST battery at two sites on the volar surface of either forearm. The QST battery included the following tests: thermal detection and pain thresholds, mechanical detection and pain thresholds, stimulus/response functions, wind-up ratio and pressure pain threshold.
For measurement of pain, a visual analogue scale (VAS) was used. The VAS consisted of a 100 mm line, with 0 representing "no pain" and 100 representing "worst pain imaginable". Subjects were asked to mark the VAS using a single vertical stroke at the point they considered to appropriately reflect their level of pain from the injection of capsaicin (not general pain). A new VAS was provided for each time point and subjects were not allowed to see their previous VAS responses. The VAS was scored by measuring from the left-hand end of the scale to the point where the subject had marked the line, and the distance in mm was recorded.
Response to pain was also assessed by a numeric rating scale (NRS). For example, by using an 11-point numeric rating scale ranging from 0 ("no pain") to 10 ("worst possible pain") and asking the subject to rate their pain. A NRS scale of 0 to 100 was also used in some assesments.
The thermal tests were performed using a thermode probe (Medoc). Cold and warm detection thresholds were measured first, then cold pain and heat pain thresholds were determined. The mean threshold temperature of 3 consecutive measurements was calculated. All thresholds were obtained with ramped stimuli (1°C/sec) that were terminated when the subject pressed a button. For thermal detection thresholds the ramp back to baseline was 1°C/sec, while for thermal pain thresholds this ramp was chosen at maximum device capacity resulting in approximately a nominal 5°C/sec.
The mechanical detection threshold was measured with a standardised set of modified von Frey nylons that exerted forces upon bending between 0.25 and 512 mN graded by a factor of 2 (1 to 2 seconds contact time). […]

COc1cc2ccc(O[C@@H]3C[C@H]4CC[C@@H](C3)N4)cc2oc1=O [IP2015, exo-7-[(8-azabicyclo[3.2.1]octan-3-yl)oxy]-3-methoxy-chromen-2-one]
area of brush-evoked allodynia compared to placebo (5 mg IP2015, 120 min after capsaicin injection, P=0.049): significantly lowered
Pain Score of Brush-evoked Allodynia Using an NRS, Adjusted Mean (MMRM) (5 mg IP2015): 1.8
Subjective Rating of Pain, Adjusted Mean (MMRM) (5 mg IP2015 single oral dose): 15.6 mm
adjusted mean pain score of hyperalgesia compared to placebo (5 mg and 10 mg IP2015, 300 mg pregabalin, all post-capsaicin injection timepoints): lower
average decrease in hyperalgesic area across all timepoints compared to placebo (10 mg IP2015): 4 cm^2
decrease of subjective rating of pain compared to placebo (10 mg IP2015, 15 min post capsaicin): 7.2 mm
decrease of subjective rating of pain compared to placebo (10 mg IP2015, 30 min post capsaicin): 8.3 mm
decrease of subjective rating of pain compared to placebo (10 mg IP2015, 60 min post capsaicin): 7.5 mm
Pain Score of Brush-evoked Allodynia Using an NRS, Adjusted Mean (MMRM) (10 mg IP2015): 1.6
overall increase in warm detection threshold between test and control areas (QST) (10 mg IP2015, p = 0.013, post-hoc analysis): significant
pressure pain threshold (QST) (10 mg IP2015, post-hoc analysis): best effects
Subjective Rating of Pain, Adjusted Mean (MMRM) (10 mg IP2015 single oral dose): 11.7 mm
thermal sensory limen warm test (QST) (IP2015 versus pregabalin, post-hoc analysis): improved effects compared to pregabalin
